Results taken from BindingDB's records for doi:10.1016/s0960-894x(03)00584-5 (Schering-Plough Research Institute, 2003).

Biological target: Hepatitis C virus NS3 protease (Hepatitis C virus)
Test: Inhibitory activity evaluated in the HCV protease binding assay

For `O=C1OC[C@H]2O[C@@H](Oc3cc(O)c4c(c3)OC(c3ccccc3)CC4=O)[C@H](O)[C@@H](O)[C@@H]2OC(=O)c2cc(O)c(O)c(O)c2-c2c1cc(O)c(O)c2O` (stereo partly specified) [2,3,4,5,6,7,14,15-octahydroxy-13-(5-hydroxy-4-oxo-2-phenyl-3,4-dihydro-2H-7-chromenyloxy)-9,11,11a,13,14,15,15a,17-octahydrodibenzo[g,i]pyrano[3,2-b][1,5]dioxacycloundecine-9,17-dione], the IC50 was 2.8 µM.
